Where two headings read alike, the source gives them in different places.
Molecular target: α-glucosidase from Saccharomyes cerevisiae (Saccharomyces cerevisiae, UniProt P53341)
Test: α-Glucosidase inhibition assay (PNPG substrate, OD 405 nm)
Type: biochemical
Conditions: for inhibition at 100 µM: read-out: %Inhibition (100 μM); for inhibitory activity against α-glucosidase, in words: at 100 μM; for inhibition at 50 µM: read-out: %Inhibition (50 μM)
Method: The α-glucosidase inhibitory effect was assessed using a previously described method with slight modification. 0.2 U of α-glucosidase from Saccharomyes cerevisiae purchased from Sigma-Aldrich (St. Louis, MO, USA) was diluted to 0.1 M phosphate buffer consisting of Na2HPO4 and NaH2PO4 (pH 6.8). The assay was conducted in a 200 μL reaction system containing 148 μL of the buffer, 25 μL of diluted enzyme solution, and 2 μL of DMSO or sample (dissolved in DMSO). After 20 min of incubation in the 96-well plates at 37 °C, 25 μL of 0.4 mM 4-nitrophenyl-[…]-D-glucopyranoside (PNPG, Aladdin, Shanghai, China) was added as a substrate to start the enzymatic reaction. The plate was incubated for an additional 15 min at 37 °C, followed by the measurement of the optical density (OD). The final concentrations of tested compounds were between 0.39 and 100 μM. The OD was measured at an absorbance wavelength of 405 nm using a Microplate Reader (Tecan, Switzerland).

[1] = α-glucosidase, compound at 100 μM

Sequence of α-glucosidase from Saccharomyes cerevisiae (P53341 whole entry): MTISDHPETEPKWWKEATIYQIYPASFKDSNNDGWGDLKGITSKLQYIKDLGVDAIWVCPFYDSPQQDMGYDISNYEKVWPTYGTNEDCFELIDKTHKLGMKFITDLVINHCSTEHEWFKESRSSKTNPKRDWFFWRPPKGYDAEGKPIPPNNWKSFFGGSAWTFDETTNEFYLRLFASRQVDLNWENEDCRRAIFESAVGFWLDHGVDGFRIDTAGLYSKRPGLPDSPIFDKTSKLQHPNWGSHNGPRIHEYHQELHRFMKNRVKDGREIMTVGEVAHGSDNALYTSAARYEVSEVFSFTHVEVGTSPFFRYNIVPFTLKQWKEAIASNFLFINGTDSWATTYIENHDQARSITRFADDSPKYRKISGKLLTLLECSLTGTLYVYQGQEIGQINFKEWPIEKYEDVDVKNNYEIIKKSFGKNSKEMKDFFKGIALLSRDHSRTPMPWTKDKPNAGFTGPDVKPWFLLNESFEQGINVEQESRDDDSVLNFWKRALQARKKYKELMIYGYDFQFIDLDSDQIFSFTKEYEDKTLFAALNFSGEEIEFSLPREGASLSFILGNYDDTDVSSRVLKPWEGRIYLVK

| SMILES | inhibition at 100 µM [1] | inhibition at 100 µM | inhibitory activity against α-glucosidase, in words | inhibition at 50 µM |
| --- | --- | --- | --- | --- |
| COC(=O)[C@]1(Cc2ccc3c(c2)C[C@H](C(C)(C)O)O3)OC(=O)C(O)=C1c1ccc(O)cc1 [Compound 4, butyrolactone IV] | – | 37.3% | – | – |
| COC(=O)[C@]1(Cc2ccc(O)c(CC=C(C)C)c2)OC(=O)C(O)=C1c1ccc(O)cc1 [Compound 6, butyrolactone I] | – | 100% | – | 89.4% |
| CCOC(=O)[C@]1(Cc2ccc(O)c(CC=C(C)C)c2)OC(=O)C(O)=C1c1ccc(O)cc1 [Compound 7, butyrolactone VII] | – | 100% | – | 98.7% |
| COC(=O)[C@]1(Cc2ccc3c(c2)CCC(C)(C)O3)OC(=O)C(O)=C1c1ccc(O)cc1 [Compound 8, aspernolide A] | – | 89.2% | significant inhibition | – |

More lines, main results first:

| inhibition at 100 µM [1] | SMILES | inhibition at 100 µM | inhibitory activity against α-glucosidase, in words | inhibition at 50 µM |
| --- | --- | --- | --- | --- |
| 18.6% | COC(=O)[C@]1(Cc2ccc3c(c2)C[C@H](C(C)(C)O)O3)OC(=O)C(O)=C1c1ccccc1 [Compound 1, Aspernolide N] | – | – | – |
| 23.2% | CCOC(=O)[C@]1(Cc2ccc3c(c2)C[C@H](C(C)(C)O)O3)OC(=O)C(O)=C1c1ccc(O)cc1 [Compound 2, Aspernolide O] | – | – | – |
| 26.4% | CCOC(=O)[C@]1(Cc2ccc3c(c2)CC(O)C(C)(C)O3)OC(=O)C(O)=C1c1ccc(O)cc1 (stereo partly shown) [Compound 3, Aspernolide P] | – | – | – |
| 21.6% | COC(=O)[C@]1(Cc2ccc3c(c2)C[C@H](O)C(C)(C)O3)OC(=O)C(O)=C1c1ccc(O)cc1 [Compound 5, butyrolactone V] | – | negligible inhibitory activity | – |
| 90.4% | COC(=O)[C@]1(Cc2ccc3c(c2)C=CC(C)(C)O3)OC(=O)C(O)=C1c1ccc(O)cc1 [Compound 9, aspernolide E] | – | – | – |

— paper PMC6627487, “Butenolide Derivatives with α-Glucosidase Inhibitions from the Deep-Sea-Derived Fungus Aspergillus terreus YPGA10” (Marine Drugs, 2019)
